In publication PMC10504874 (Journal of medicinal chemistry, 2021):
Read-outs that look alike come from different tables or passages of the source. Residues, ends and D or L forms follow the SMILES beside them. *: point of attachment. Cbz = O=C(OCc1ccccc1)*

What was measured:
cruzain [1] = biological target: T1, cruzain (Trypanosoma cruzi, UniProt P25779); assay: Cruzain inhibition, fluorogenic substrate Cbz-Phe-Arg-AMC time courses; format: biochemical
cruzain [2] = biological target: T1, cruzain; assay: biochemical; conditions: read-out: Residence time τ=1/kobs
[3] = system: T. cruzi-infected cardiomyoblasts; assay: T. cruzi-infected C2C12 murine cardiomyoblast assay; format: cell-based; conditions: Trypanosoma cruzi, C2C12, in Mus musculus, 48 h, read-out: T. cruzi-infected cardiomyoblasts EC50, C2C12 cells, T. cruzi Ca-I/72, 2 days, 0.02–40 μM
[4] = system: C2C12 murine cardiomyoblast cells; assay: Toxicity against host cardiomyoblasts in the T. cruzi infection assay; format: cell-based; conditions: at up to 40 μM
[5] = Detection of aldehyde content using phenylhydrazine; format: physicochemical; conditions: 0.2 mM compound, 1 mM phenylhydrazine; for Reaction with excess phenylhydrazine (in words): 2 h; for kobs of phenylhydrazone formation: Abs 282 nm, pH 7.5 buffer lacking DTT
[6] = Pharmacokinetic evaluation in mice by intravenous administration; format: in vivo; conditions: data not shown
[7] = Stability of prodrugs in buffer without esterase; format: physicochemical; conditions: buffer pH 7.5, over 3 h
human cathepsin L = human cathepsin L (Homo sapiens, UniProt P07711); assay: Human cathepsin L inhibition; format: biochemical
T. b. brucei BSFs [8] = assay: Axenic cultures of T. b. brucei bloodstream forms, growth inhibition; conditions: Trypanosoma brucei, read-out: T. b. brucei BSFs EC50
T. b. brucei BSFs [9] = conditions: read-out: EC50 in T. b. brucei BSFs; cited from earlier work

T1 sequence (P25779 123-337 limits assumed): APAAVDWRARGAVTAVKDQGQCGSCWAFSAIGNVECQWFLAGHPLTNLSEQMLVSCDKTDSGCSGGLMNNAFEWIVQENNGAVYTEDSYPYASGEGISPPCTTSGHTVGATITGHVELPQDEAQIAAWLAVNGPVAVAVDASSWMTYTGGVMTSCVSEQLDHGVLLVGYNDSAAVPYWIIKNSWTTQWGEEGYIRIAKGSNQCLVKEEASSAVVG
Chain of human cathepsin L (P07711 114-333): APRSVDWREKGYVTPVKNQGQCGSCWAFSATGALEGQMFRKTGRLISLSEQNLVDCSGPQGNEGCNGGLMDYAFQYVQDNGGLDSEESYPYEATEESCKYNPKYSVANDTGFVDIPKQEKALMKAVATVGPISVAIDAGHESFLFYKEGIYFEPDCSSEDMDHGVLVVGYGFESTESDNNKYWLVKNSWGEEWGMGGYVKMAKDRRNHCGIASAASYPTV

## CN1CCN(C(=O)N[C@@H](Cc2ccccc2)C(=O)N[C@@H]2Cc3ccccc3C[C@H]2O)CC1 (mixture of isomers) [Compound 3, N-((S)-1-(((2S,3S)-3-hydroxy-1,2,3,4-tetrahydronaphthalen-2-yl)amino)-1-oxo-3-phenylpropan-2-yl)-4-methylpiperazine-1-carboxamide and N-((S)-1-(((2R,3R)-3-hydroxy-1,2,3,4-tetrahydronaphthalen-2-yl)amino)-1-oxo-3-phenylpropan-2-yl)-4-methylpiperazine-1-carboxamide]
Cruzain [1]; at ≤100 μM
  Cruzain inhibition (in words): did not inhibit cruzain

## O=C[C@H](Cc1ccccc1)NC(=O)[C@H](Cc1ccccc1)NC(=O)OCc1ccccc1 [Compound 1, Cbz-Phe-Phe-H] (Cbz-Phe-Phe-aldehyde)
Cruzain [1]; from replot of kobs vs [I], eq 3
  k4, rate constant for conversion of EI* back to EI: (7.6±0.6)×10^–4 s^–1
Cruzain [2]
  residence time: 52 min
[3]
  EC50: 400 nM
[4]
  Toxicity against the host cardiomyoblasts: significant cytotoxicity

## O=C(N[C@@H](Cc1ccccc1)C(=O)N[C@H]1Cc2ccccc2OC1O)OCc1ccccc1 (stereo partly drawn) [Compound 2, Cbz-Phe-o-Tyr-H]
Cruzain [1]; Ki*(12)/Ki*(11), Ki*(2)/Ki*(1)
  Ratio Ki*(SMAI)/Ki*(free aldehyde counterpart): 110
Cruzain [2]
  residence time: 2.5 to 5.5 min

## COc1ccccc1C[C@@H](C=O)NC(=O)[C@H](Cc1ccccc1)NCC(=O)OCc1ccccc1 [Compound 5]
Cruzain [1]
  Fold less active than aldehyde 1 versus cruzain: 50 fold

## COc1ccc2c(c1)C[C@H](NC(=O)[C@H](Cc1ccccc1)NC(=O)OCc1ccccc1)C(O)O2 (some centres unmarked) [Compound 6]
Cruzain [1]
  Fold lower activity than 7: over 3 fold
  Fold more weakly binding than un-substituted SMAI 2: 7 fold
Cruzain [2]
  residence time: 2.5 to 5.5 min

## Cc1ccc2c(c1)C[C@H](NC(=O)[C@H](Cc1ccccc1)NC(=O)OCc1ccccc1)C(O)O2 (stereo partly drawn) [Compound 7, Benzyl ((2S)-1-(((3S)-2-hydroxy-6-methylchroman-3-yl)amino)-1-oxo-3-phenylpropan-2-yl)carbamate]
Cruzain [2]
  residence time: 2.5 to 5.5 min

## O=C(N[C@@H](Cc1ccccc1)C(=O)N[C@H]1Cc2cc(Cl)ccc2OC1O)OCc1ccccc1 (some centres unmarked) [Compound 8]
Cruzain [2]
  residence time: 2.5 to 5.5 min

## O=C(N[C@@H](Cc1ccccc1)C(=O)N[C@H]1Cc2cc(F)ccc2OC1O)OCc1ccccc1 (some centres unmarked) [Compound 9]
Cruzain [2]
  residence time: 2.5 to 5.5 min

## COC(=O)c1ccc2c(c1)C[C@H](NC(=O)[C@H](Cc1ccccc1)NC(=O)OCc1ccccc1)C(O)O2 (some centres unmarked) [Compound 10]
Cruzain [1]
  Fold increase in potency versus 2: 3 fold
Cruzain [2]
  residence time: 2.5 to 5.5 min

## CN1CCN(C(=O)N[C@@H](Cc2ccccc2)C(=O)N[C@H](C=O)CCc2ccccc2)CC1 [Compound 11, 4-Methyl-N-((S)-1-oxo-1-(((S)-1-oxo-4-phenylbutan-2-yl)amino)-3-phenylpropan-2-yl)piperazine-1-carboxamide]
[5]
  Reaction with excess phenylhydrazine (in words): completely converted to phenylhydrazone
  kobs of phenylhydrazone formation: (2.61±0.05)×10^–4 s^–1

## CN1CCN(C(=O)N[C@@H](Cc2ccccc2)C(=O)N[C@H]2Cc3ccccc3OC2O)CC1 (some centres unmarked) [Compound 12]
Cruzain [2]
  residence time: 26 min
[5]
  Reaction with excess phenylhydrazine (in words): remained intact after 2 h
  kobs of phenylhydrazone formation: negligible
[6]
  Half-life in mice (in words): short half-life

## CC(=O)OC1Oc2ccccc2C[C@@H]1NC(=O)[C@H](Cc1ccccc1)NC(=O)N1CCN(C)CC1 (stereo partly drawn) [Compound 13, (3S)-3-((S)-2-(4-methylpiperazine-1-carboxamido)-3-phenylpropanamido)chroman-2-yl acetate]
[7]
  Degradation in buffer without esterase: about 10%

## CCOC1Oc2ccccc2C[C@@H]1NC(=O)[C@H](Cc1ccccc1)NC(=O)N1CCN(C)CC1 (stereo partly drawn) [Compound 16, N-((2S)-1-(((3S)-2-ethoxychroman-3-yl)amino)-1-oxo-3-phenylpropan-2-yl)-4-methylpiperazine-1-carboxamide]
Cruzain [1]
  Cruzain inhibition by prodrugs (in words): did not inhibit cruzain

## CC(C)OC1Oc2ccccc2C[C@@H]1NC(=O)[C@H](Cc1ccccc1)NC(=O)N1CCN(C)CC1 (some centres unmarked) [Compound 17]
Cruzain [1]
  Cruzain inhibition by prodrugs (in words): did not inhibit cruzain

## CC(C)[C@H](NC(=O)OCc1ccccc1)C(=O)N[C@@H](CC1CCCCC1)C(=O)N[C@H](C=O)Cc1ccc[nH]c1=O [Compound 18]
Human cathepsin L
  Inhibition of human cathepsin L (in words): inhibited human cathepsin L

## CN1CCN(C(=O)N[C@@H](Cc2ccccc2)C(=O)N[C@H](/C=C/S(=O)(=O)c2ccccc2)CCc2ccccc2)CC1 [K777, reference compound]
[4]
  Toxicity against the host cardiomyoblasts: significant cytotoxicity
T. b. brucei BSFs [8]
  EC50: 90 ± 60 nM

## N=C(N)c1ccc(/N=N/Nc2ccc(C(=N)N)cc2)cc1 [diminazene]
T. b. brucei BSFs [9]
  EC50: 990 nM
